Results from patent US20240382629A1, “HETEROBIVALENT AND HOMOBIVALENT AGENTS TARGETING FIBROBLAST ACTIVATION PROTEIN ALPHA AND/OR PROSTATE-SPECIFIC MEMBRANE ANTIGEN” (The Johns Hopkins University, priority 2021, published 2024).
Values joined by “and” are separate entries in the source; they are usually repeats but may differ in a detail not shown here. Equal values may be shown once.

Test: Biodistribution of representative compounds (Example 13), % ID/g in tissues of tumor-bearing mice
Type: in vivo, mouse
[1] = 30 min, 20 μCi per mouse (SA 6500 mCi/μmol)
[2] = 60 min + Blocker cold FAPI-04 (10 nmole, 6500-fold)
[3] = 60 min, 20 μCi per mouse (SA 6500 mCi/μmol)

SMILES: N#C[C@@H]1CCCN1C(=O)CNC(=O)c1ccnc2ccc(OCCCNC(=O)[C@@H](CC(=O)O)NC(=O)[C@@H](CC(=O)O)NC(=O)c3ccc([18F])nc3)cc12 [[^18F]JHU1221785]
- % ID/g Bladder (individual mouse) [1]: 0.93 % ID/g and 4.69 % ID/g
- % ID/g Blood (individual mouse) [1]: 5.98 % ID/g and 3.90 % ID/g
- % ID/g Brain (individual mouse) [1]: 0.14 % ID/g and 0.15 % ID/g
- % ID/g Fat (individual mouse) [1]: 0.21 % ID/g and 0.19 % ID/g
- % ID/g Femur (individual mouse) [1]: 2.78 % ID/g and 2.44 % ID/g
- % ID/g Heart (individual mouse) [1]: 2.51 % ID/g and 2.01 % ID/g
- % ID/g Kidney (individual mouse) [1]: 1.60 % ID/g and 3.33 % ID/g
- % ID/g Large intestine (individual mouse) [1]: 0.58 % ID/g and 0.86 % ID/g
- % ID/g Liver (individual mouse) [1]: 6.56 % ID/g and 8.08 % ID/g
- % ID/g Lung (individual mouse) [1]: 2.77 % ID/g and 2.53 % ID/g
- % ID/g Mean Bladder [1]: 2.81 % ID/g
- % ID/g Mean Blood [1]: 4.94 % ID/g
- % ID/g Mean Brain [1]: 0.14 % ID/g
- % ID/g Mean Fat [1]: 0.20 % ID/g
- % ID/g Mean Femur [1]: 2.61 % ID/g
- % ID/g Mean Heart [1]: 2.26 % ID/g
- % ID/g Mean Kidney [1]: 2.47 % ID/g
- % ID/g Mean Large intestine [1]: 0.72 % ID/g
- % ID/g Mean Liver [1]: 7.32 % ID/g
- % ID/g Mean Lung [1]: 2.65 % ID/g
- % ID/g Mean Muscle [1]: 0.96 % ID/g
- % ID/g Mean Pancreas [1]: 2.31 % ID/g
- % ID/g Mean Salivary gland [1]: 2.93 % ID/g
- % ID/g Mean Small intestine [1]: 2.49 % ID/g
- % ID/g Mean Spleen [1]: 1.00 % ID/g
- % ID/g Mean Stomach [1]: 0.82 % ID/g
- % ID/g Mean Tumor [1]: 1.24 % ID/g
- % ID/g Muscle (individual mouse) [1]: 0.81 % ID/g and 1.12 % ID/g
- % ID/g Pancreas (individual mouse) [1]: 1.92 % ID/g and 2.71 % ID/g
- % ID/g Salivery gland (individual mouse) [1]: 2.81 % ID/g and 3.05 % ID/g
- % ID/g Small intestine (individual mouse) [1]: 2.60 % ID/g and 2.38 % ID/g
- % ID/g Spleen (individual mouse) [1]: 1.03 % ID/g and 0.97 % ID/g
- % ID/g Stomach (individual mouse) [1]: 0.72 % ID/g and 0.92 % ID/g
- % ID/g Tumor (individual mouse) [1]: 1.14 % ID/g
- % ID/g Bladder (individual mouse) [2]: 0.23 % ID/g and 0.67 % ID/g
- % ID/g Blood (individual mouse) [2]: 0.11 % ID/g and 9.26 % ID/g
- % ID/g Brain (individual mouse) [2]: 0.02 % ID/g and 0.04 % ID/g
- % ID/g Fat (individual mouse) [2]: 0.03 % ID/g and 0.21 % ID/g
- % ID/g Femur (individual mouse) [2]: 1.52 % ID/g and 1.50 % ID/g
- % ID/g Heart (individual mouse) [2]: 0.06 % ID/g and 0.07 % ID/g
- % ID/g Kidney (individual mouse) [2]: 0.41 % ID/g and 0.51 % ID/g
- % ID/g Large intestine (individual mouse) [2]: 0.08 % ID/g and 0.33 % ID/g
- % ID/g Liver (individual mouse) [2]: 9.42 % ID/g and 10.36 % ID/g
- % ID/g Lung (individual mouse) [2]: 0.13 % ID/g and 0.20 % ID/g
- % ID/g Mean Bladder [2]: 0.43 % ID/g
- % ID/g Mean Blood [2]: 4.68 % ID/g
- % ID/g Mean Brain [2]: 0.03 % ID/g
- % ID/g Mean Fat [2]: 0.12 % ID/g
- % ID/g Mean Femur [2]: 1.51 % ID/g
- % ID/g Mean Heart [2]: 0.07 % ID/g
- % ID/g Mean Kidney [2]: 0.46 % ID/g
- % ID/g Mean Large intestine [2]: 0.20 % ID/g
- % ID/g Mean Liver [2]: 9.69 % ID/g
- % ID/g Mean Lung [2]: 0.17 % ID/g
- % ID/g Mean Muscle [2]: 0.06 % ID/g
- % ID/g Mean Pancreas [2]: 0.13 % ID/g
- % ID/g Mean Salivary gland [2]: 0.05 % ID/g
- % ID/g Mean Small intestine [2]: 3.54 % ID/g
- % ID/g Mean Spleen [2]: 0.16 % ID/g
- % ID/g Mean Stomach [2]: 0.16 % ID/g
- % ID/g Mean Tumor [2]: 0.10 % ID/g
- % ID/g Muscle (individual mouse) [2]: 0.04 % ID/g and 0.07 % ID/g
- % ID/g Pancreas (individual mouse) [2]: 0.05 % ID/g and 0.22 % ID/g
- % ID/g Salivery gland (individual mouse) [2]: 0.04 % ID/g and 0.06 % ID/g
- % ID/g Small intestine (individual mouse) [2]: 0.88 % ID/g and 6.19 % ID/g
- % ID/g Spleen (individual mouse) [2]: 0.08 % ID/g and 0.25 % ID/g
- % ID/g Stomach (individual mouse) [2]: 0.09 % ID/g and 0.23 % ID/g
- % ID/g Tumor (individual mouse) [2]: 0.08 % ID/g and 0.11 % ID/g
- % ID/g Bladder (individual mouse) [3]: 0.76 % ID/g and 0.92 % ID/g
- % ID/g Blood (individual mouse) [3]: 2.56 % ID/g and 4.57 % ID/g
- % ID/g Brain (individual mouse) [3]: 0.09 % ID/g and 0.12 % ID/g
- % ID/g Fat (individual mouse) [3]: 0.22 % ID/g and 0.12 % ID/g
- % ID/g Femur (individual mouse) [3]: 2.06 % ID/g and 2.07 % ID/g
- % ID/g Heart (individual mouse) [3]: 1.38 % ID/g and 1.73 % ID/g
- % ID/g Kidney (individual mouse) [3]: 0.79 % ID/g and 1.04 % ID/g
- % ID/g Large intestine (individual mouse) [3]: 0.61 % ID/g and 0.78 % ID/g
- % ID/g Liver (individual mouse) [3]: 7.41 % ID/g and 8.27 % ID/g
- % ID/g Lung (individual mouse) [3]: 1.70 % ID/g and 2.65 % ID/g
- % ID/g Mean Bladder [3]: 0.84 % ID/g
- % ID/g Mean Blood [3]: 3.57 % ID/g
- % ID/g Mean Brain [3]: 0.10 % ID/g
- % ID/g Mean Fat [3]: 0.22 % ID/g
- % ID/g Mean Femur [3]: 2.07 % ID/g
- % ID/g Mean Heart [3]: 1.56 % ID/g
- % ID/g Mean Kidney [3]: 0.91 % ID/g
- % ID/g Mean Large intestine [3]: 0.69 % ID/g
- % ID/g Mean Liver [3]: 7.84 % ID/g
- % ID/g Mean Lung [3]: 2.18 % ID/g
- % ID/g Mean Muscle [3]: 0.98 % ID/g
- % ID/g Mean Pancreas [3]: 2.07 % ID/g
- % ID/g Mean Salivary gland [3]: 3.45 % ID/g
- % ID/g Mean Small intestine [3]: 1.83 % ID/g
- % ID/g Mean Spleen [3]: 0.93 % ID/g
- % ID/g Mean Stomach [3]: 0.71 % ID/g
- % ID/g Mean Tumor [3]: 2.23 % ID/g
- % ID/g Muscle (individual mouse) [3]: 1.03 % ID/g and 0.69 % ID/g
- % ID/g Pancreas (individual mouse) [3]: 1.96 % ID/g and 2.17 % ID/g
- % ID/g Salivery gland (individual mouse) [3]: 2.17 % ID/g and 4.73 % ID/g
- % ID/g Small intestine (individual mouse) [3]: 1.65 % ID/g and 2.01 % ID/g
- % ID/g Spleen (individual mouse) [3]: 0.78 % ID/g and 1.09 % ID/g
- % ID/g Stomach (individual mouse) [3]: 0.60 % ID/g and 0.81 % ID/g
- % ID/g Tumor (individual mouse) [3]: 2.99 % ID/g and 1.47 % ID/g
